Experimental data from patent US20230058623A1, “NOVEL HETEROARYL-TRIAZOLE COMPOUNDS AS PESTICIDES” (Bayer Aktiengesellschaft, priority 2019, published 2023).

Key:
Assay type in all cases: in vivo
[1] = system: Rhipicephalus (Boophilus) microplus larvae (strain Parkhurst, resistant against synthetic pyrethroids); experiment: Rhipicephalus (Boophilus) microplus in-vitro contact test, larval cattle tick; conditions: after 48 hours, read-out: activity (efficacy: larvae dead or moribund); for pest or weed control at 1 µg/cm2, 100 g/ha: application rate 1 μg/cm^2 (=100 g/ha); for pest or weed control at 5 µg/cm2, 500 g/ha: application rate 5 μg/cm^2 (=500 g/ha)
Outline: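 Pyrethroid-resistant Parkhurst larvae, 20–50 per tube, were kept 48 h at 27 °C and 85% relative humidity in glass tubes whose inner walls carried a dried acetone film of compound (900 ppm giving 5 μg/cm^2). Dead or moribund larvae, judged by loss of negative geotactic behavior, set percent efficacy.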

[2] = system: adult engorged female ticks (Rhipicephalus microplus); experiment: Rhipicephalus (Boophilus) microplus injection test; conditions: 168 h, application rate 4 μg/tick, egg deposition after 7 days, read-out: activity (efficacy: infertile eggs)
Outline: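 Abdominal injection, 1 μL compound/DMSO, n=5 engorged adult females; climate-chamber incubation. Readout d7: fertile egg laying; doubtful eggs held to hatch (~42 d). % efficacy = infertile eggs (100% all infertile).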

[3] = system: fall armyworm larvae (Spodoptera frugiperda); experiment: Spodoptera frugiperda spray test; conditions: 168 h, application rate 100 g/ha, after 7 days, maize leaf sections
Outline: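 Seven-day percent mortality of larvae feeding on Zea mays leaf sections sprayed with test compound. Dilutions were made in water holding 1000 ppm emulsifier.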

[4] = system: larvae of the banded cucumber beetle (Diabrotica balteata); experiment: Diabrotica balteata spray test; conditions: 168 h, application rate 100 g/ha (=32 μg/well), after 7 days, wheat seeds, read-out: activity (efficacy: seedlings grown)
Outline: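 Efficacy (%) read 7 days after infesting treated seedlings with 10-20 banded cucumber beetle larvae, 100% meaning growth as in uninfected untreated control and 0% no growth. Test solutions in water containing 1000 ppm emulsifier were sprayed onto wheat seeds germinated for 1 day on agar.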

[5] = system: adult unfed cat fleas (Ctenocephalides felis); experiment: Ctenocephalides felis oral test; conditions: 48 h, read-out: activity (mortality)
Method: Ctenocephalides felis—Oral Test
Solvent: dimethyl sulfoxide
To produce a suitable preparation of active compound, 10 mg of active compound are dissolved in 0.5 mL solvent, and the concentrate is diluted with citrated cattle blood to the desired concentration.
Approximately 20 adult unfed cat fleas (Ctenocephalides felis) are placed in a flea chamber whose top and bottom is covered with gauze. A chamber whose bottom is sealed with parafilm, is filled with the blood-compound solution and placed on top of the flea chamber, so that the fleas can suck the blood. The blood chamber is heated to 37° C. whereas the flea chamber is kept at room temperature.
After 2 days mortality in % is determined. 100% means all the fleas have been killed; 0% means none of the fleas have been killed.

[6] = system: green peach aphid (Myzus persicae); experiment: Myzus persicae oral test; conditions: 120 h, read-out: activity (mortality)
Outline: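 Aphids of mixed population ingest the compound preparation by sucking through a parafilm sheet stretched over wells holding test solution plus IPL41 insect medium (33%+15% sugar). Kill rate in percent is determined five days later.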

[7] = system: adult brown dog ticks (Rhipicephalus sanguineus); experiment: Rhipicephalus sanguineus in-vitro contact test, adult brown dog ticks; conditions: application rate 5 μg/cm^2 (=500 g/ha), after 48 hours, read-out: activity (efficacy: ticks dead or moribund)
Outline: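 Contact exposure: dried compound film inside glass tubes, dose 5 μg/cm^2 at 900 ppm, 5-10 adults per tube at room temperature. Scored at 48 h via a heat-escape test on a 45-50° C plate for up to 5 min.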

[8] = system: adult cat fleas (Ctenocephalides felis); experiment: Ctenocephalides felis in-vitro contact test, adult cat flea; conditions: application rate 5 μg/cm^2 (=500 g/ha), after 48 hours, read-out: activity (efficacy: fleas dead or moribund)
Outline: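 After 48 h of room-temperature exposure in tubes whose walls carried dried compound residue (5 μg/cm^2, from 900 ppm acetone solution), adult cat fleas (5-10 per tube) were heat-challenged at 45-50° C up to 5 min. Fleas unable to climb away were counted dead or moribund, expressed as % efficacy.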

[9] = system: adult flies Musca domestica strain WHO-N; experiment: Musca domestica test (MUSCDO surface treatment & contact assay); conditions: 24 hours after contact, read-out: efficacy (mortality)
Method: Musca domestica Test (MUSCDO Surface Treatment & Contact Assay)
(§1) Solvent: Aceton+2000 ppm rapeseed oil methyl ester (RME)
(§2) In order to produce a sufficient, active ingredient containing solution it is necessary to solve the test compound in the solvent-mix (acetone at 2 mg/ml/RME 2000 ppm). This solution is pipetted onto a glazed tile and after evaporation of the acetone, adult flies of the species Musca domestica strain WHO-N are placed onto the dried surface. The exposure time is 30 minutes.
(§3) Mortality in percent (%) is determined 24 hours after contact of the insects to the treated surface. 100% mortality means that all tested insects are dead, whereas 0% means that no insect died.

[10] = system: adult mosquitoes Aedes aegypti strain MONHEIM; experiment: Aedes aegypti test (AEDSAE surface treatment & contact assay); conditions: surface concentration 20 mg/m^2, exposure 30 minutes, 24 hours after contact, read-out: efficacy (mortality)
Method: Aedes aegypti Test (AEDSAE Surface Treatment & Contact Assay)
as §1
as §2, with “mosquitoes” for “flies”, “Aedes aegypti” for “Musca domestica”, “MONHEIM” for “WHO-N”
as §3

[11] = system: green peach aphid (Myzus persicae); experiment: Myzus persicae spray test; conditions: foliar, 120 h, application rate 100 g/ha, after 5 days, Chinese cabbage leaf disks, read-out: activity (mortality)
Outline: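 Percent kill was recorded 5 days after spraying. Test solutions, prepared with solvent and diluted in 1000 ppm emulsifier water, were applied to Brassica pekinensis leaf disks carrying mixed-instar green peach aphids.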

[12] = system: larvae of the southern green stink bug (Nezara viridula); experiment: Nezara viridula spray test; conditions: 96 h, application rate 100 g/ha, after 4 days, barley plants
Method: Nezara viridula—Spray Test
To produce a suitable preparation of active compound, 1 part by weight of active compound is mixed with the stated amount of solvent, and the concentrate is diluted with water, containing an emulsifier concentration of 1000 ppm, to the desired concentration. Further test concentrations are prepared by dilution with emulsifier containing water.
Barley plants (Hordeum vulgare) are sprayed with a test solution containing the desired concentration of the active ingredient and are infested with larvae of the southern green stink bug (Nezara viridula).
After 4 days mortality in % is determined. 100% means all the stink bugs have been killed; 0% means none of the stink bugs have been killed.

CC(NC(=O)c1cc(C(F)(F)F)cc(C(F)(F)F)c1)c1nc(I)nn1-c1ccc(C(=O)N2CCOCC2)cn1 (racemic) [Example I-84, N-[1-[5-iodo-2-[5-(morpholine-4-carbonyl)-2-pyridyl]-1,2,4-triazol-3-yl]ethyl]-3,5-bis(trifluoromethyl)benzamide]
pest or weed control at 1 µg/cm2, 100 g/ha [1]: 100%
pest or weed control at 5 µg/cm2, 500 g/ha [1]: 100%
pest or weed control at 0.004 mg [2]: 100%
mortality at 100 g/ha [3]: 100%
pest or weed control at 32 µg/disc, 100 g/ha [4]: 100%
mortality at 100 ppm [5]: 100%

CC(NC(=O)c1cc(Br)cc(Br)c1)c1nc(Cl)nn1-c1ccc(C(=O)N2CCOCC2)cn1 (racemic) [Example I-87, 3,5-Dibromo-N-[1-[5-chloro-2-[5-(morpholine-4-carbonyl)-2-pyridyl]-1,2,4-triazol-3-yl]ethyl]benzamide]
pest or weed control at 1 µg/cm2, 100 g/ha [1]: 100%
pest or weed control at 5 µg/cm2, 500 g/ha [1]: 90%
pest or weed control at 0.004 mg [2]: 100%
mortality at 100 ppm [5]: 90%

C[C@H](NC(=O)c1cc(C(F)(F)F)cc(C(F)(F)F)c1)c1ncnn1-c1cc(C(=O)N2CCOCC2)ccn1 [Example I-3]
mortality at 4 ppm [6]: 90%
pest or weed control at 1 µg/cm2, 100 g/ha [1]: 100%
pest or weed control at 5 µg/cm2, 500 g/ha [1]: 100%
pest or weed control at 5 µg/cm2, 500 g/ha [7]: 100%
mortality at 100 ppm [5]: 90%

C[C@H](NC(=O)c1cc(C(F)(F)F)cc(C(F)(F)F)c1)c1ncnn1-c1ccc(C(=O)N2CCCC(O)C2)cn1 (some centres unmarked) [Example I-7]
pest or weed control at 5 µg/cm2 [8]: 90%
mortality at 4 ppm [6]: 100%
pest or weed control at 1 µg/cm2, 100 g/ha [1]: 90%
pest or weed control at 5 µg/cm2, 500 g/ha [1]: 90%
pest or weed control at 0.004 mg [2]: 100%
mortality at 100 ppm [5]: 90%

Cc1nc([C@H](C)NC(=O)c2cc(C(F)(F)F)cc(C(F)(F)F)c2)n(-c2ncc(C(=O)N3CCC3)s2)n1 [Example I-17]
pest or weed control at 5 µg/cm2 [8]: 80%
mortality at 4 ppm [6]: 100%
pest or weed control at 1 µg/cm2, 100 g/ha [1]: 100%
pest or weed control at 5 µg/cm2, 500 g/ha [1]: 100%
pest or weed control at 0.004 mg [2]: 100%
mortality at 100 g/ha [3]: 100%
mortality at 100 ppm [5]: 100%

Cc1nc([C@H](C)NC(=O)c2cc(Cl)cc(C(F)(F)F)c2)n(-c2ccc(C(=O)N3CC[C@H](F)C3)cn2)n1 [Example I-18]
pest or weed control at 5 µg/cm2 [8]: 90%
pest or weed control at 1 µg/cm2, 100 g/ha [1]: 100%
pest or weed control at 5 µg/cm2, 500 g/ha [1]: 90%
pest or weed control at 0.004 mg [2]: 100%
mortality at 100 g/ha [3]: 100%
pest or weed control at 5 µg/cm2, 500 g/ha [7]: 100%
mortality at 100 ppm [5]: 100%

Cc1nc([C@H](C)NC(=O)c2cc(Cl)cc(C(F)(F)F)c2)n(-c2ccc(C(=O)N3CC[C@@H](F)C3)cn2)n1 [Example I-19]
pest or weed control at 5 µg/cm2 [8]: 100%
mortality at 4 ppm [6]: 90%
pest or weed control at 1 µg/cm2, 100 g/ha [1]: 100%
pest or weed control at 5 µg/cm2, 500 g/ha [1]: 100%
pest or weed control at 0.004 mg [2]: 100%
mortality at 100 g/ha [3]: 100%
pest or weed control at 5 µg/cm2, 500 g/ha [7]: 100%
mortality at 100 ppm [5]: 100%

Cc1nc([C@H](C)NC(=O)c2cc(Cl)cc(C(F)(F)F)c2)n(-c2ccc(C(=O)N3CCCC3)cn2)n1 [Example I-22]
pest or weed control at 5 µg/cm2 [8]: 90%
pest or weed control at 1 µg/cm2, 100 g/ha [1]: 90%
pest or weed control at 5 µg/cm2, 500 g/ha [1]: 90%
pest or weed control at 0.004 mg [2]: 100%
mortality at 100 g/ha [3]: 100%
pest or weed control at 5 µg/cm2, 500 g/ha [7]: 100%
mortality at 100 ppm [5]: 80%

C[C@H](NC(=O)c1cc(Cl)cc(C(F)(F)F)c1)c1ncnn1-c1ccc(C(=O)N2CCOC[C@@H]2C)cn1 [Example I-37]
pest or weed control at 1 µg/cm2, 100 g/ha [1]: 100%
pest or weed control at 5 µg/cm2, 500 g/ha [1]: 100%
pest or weed control at 0.004 mg [2]: 100%
mortality at 100 g/ha [3]: 100%
pest or weed control at 5 µg/cm2, 500 g/ha [7]: 100%
pest or weed control at 32 µg/disc, 100 g/ha [4]: 100%
mortality at 100 ppm [5]: 80%

C[C@H](NC(=O)c1cc(Cl)cc(C(F)(F)F)c1)c1ncnn1-c1ccc(C(=O)N2CCN(C)CC2)cn1 [Example I-42]
pest or weed control at 1 µg/cm2, 100 g/ha [1]: 100%
pest or weed control at 0.004 mg [2]: 100%
pest or weed control at 32 µg/disc, 100 g/ha [4]: 80%
mortality at 100 ppm [5]: 80%

CC(NC(=O)c1cc(Cl)cc(OC(F)(F)F)c1)c1nc(C(F)F)nn1-c1ccc(C(=O)N2CCOCC2)cn1 (centres unmarked) [Example I-59]
mortality at 20 ppm [6]: 100%
pest or weed control at 0.004 mg [2]: 100%
pest or weed control at 32 µg/disc, 100 g/ha [4]: 80%
mortality at 100 ppm [5]: 100%

Cc1nc([C@H](C)NC(=O)c2cc(C(F)(F)F)cc(C(F)(F)F)c2)n(-c2ccc(C(=O)N3CCO[C@H](C)C3)cn2)n1 [Example I-70]
pest or weed control at 5 µg/cm2 [8]: 100%
mortality at 4 ppm [6]: 100%
pest or weed control at 1 µg/cm2, 100 g/ha [1]: 100%
pest or weed control at 5 µg/cm2, 500 g/ha [1]: 100%
mortality at 100 g/ha [3]: 100%
pest or weed control at 5 µg/cm2, 500 g/ha [7]: 100%
mortality at 4 mg/m2 ([9]; surface concentration 4 mg/m^2, exposure 30 minutes): 80 to 100%
mortality at 20 mg/m2 ([9]; surface concentration 20 mg/m^2, exposure 30 minutes): 80 to 100%
pest or weed control at 32 µg/disc, 100 g/ha [4]: 100%
mortality at 20 mg/m2 [10]: 80 to 100%
mortality at 100 g/ha [11]: 90%
mortality at 100 g/ha [12]: 90%

C[C@H](NC(=O)c1cc(Cl)cc(C(F)(F)F)c1)c1ncnn1-c1ccc(N2CC(F)(F)C2)cn1 [Example I-108]
mortality at 100 ppm [5]: 100%

Cc1nc([C@H](C)NC(=O)c2cc(OC(F)(F)F)cc(C3CC3)c2)n(-c2ccc(C(=O)N3C[C@@H](C)O[C@H](C)C3)cn2)n1 [Example I-117]
pest or weed control at 5 µg/cm2 [8]: 100%
mortality at 4 ppm [6]: 100%
pest or weed control at 1 µg/cm2, 100 g/ha [1]: 90%
pest or weed control at 5 µg/cm2, 500 g/ha [1]: 90%
pest or weed control at 0.004 mg [2]: 100%
pest or weed control at 5 µg/cm2, 500 g/ha [7]: 100%
mortality at 100 g/ha [11]: 90%
mortality at 100 ppm [5]: 90%
